Data taken from patent publication US20050244490A1, “Dosing methods for beta-D-2',3'-dideoxy-2',3'-didehydro-5-fluorocytidine antiviral therapy” (priority 2003, published 2005).
Read-outs that look alike come from different tables or passages of the source.

Assays:
clinical [1] = details: male, human, in vivo
Procedure: Total of 18 HIV-1 infected males, aged 18-55 years, enrolled, 6 per treatment cohort.
In Cohort 3, subjects received either 100 mg, or 200 mg, or placebo.
The data was analyzed using non-compartmental and two-compartmental models.
HIV RNA levels were also determined using quantitative real-time RT-PCR.
Plasma HIV-1 RNA levels were measured by quantitative reverse transcriptase-polymerase chain reaction (Q-RT-PCR) essentially as described by Stuyver, L. J. et al., “Antiviral activity and cellular toxicity of modified 2′,3′-dideoxy-2′,3′-didehydrocytidine analogues” Antimicrob Agents Chemother.

HIV viral load = details: cited from earlier work
DNA Pol γ = target: T1, DNA Pol γ (Homo sapiens, UniProt P54098); assay: Inhibition of pure DNA polymerase γ by nucleoside triphosphates; assay type: biochemical; details: tritiated dCTP incorporation
T1 sequence (P54098 1-1239): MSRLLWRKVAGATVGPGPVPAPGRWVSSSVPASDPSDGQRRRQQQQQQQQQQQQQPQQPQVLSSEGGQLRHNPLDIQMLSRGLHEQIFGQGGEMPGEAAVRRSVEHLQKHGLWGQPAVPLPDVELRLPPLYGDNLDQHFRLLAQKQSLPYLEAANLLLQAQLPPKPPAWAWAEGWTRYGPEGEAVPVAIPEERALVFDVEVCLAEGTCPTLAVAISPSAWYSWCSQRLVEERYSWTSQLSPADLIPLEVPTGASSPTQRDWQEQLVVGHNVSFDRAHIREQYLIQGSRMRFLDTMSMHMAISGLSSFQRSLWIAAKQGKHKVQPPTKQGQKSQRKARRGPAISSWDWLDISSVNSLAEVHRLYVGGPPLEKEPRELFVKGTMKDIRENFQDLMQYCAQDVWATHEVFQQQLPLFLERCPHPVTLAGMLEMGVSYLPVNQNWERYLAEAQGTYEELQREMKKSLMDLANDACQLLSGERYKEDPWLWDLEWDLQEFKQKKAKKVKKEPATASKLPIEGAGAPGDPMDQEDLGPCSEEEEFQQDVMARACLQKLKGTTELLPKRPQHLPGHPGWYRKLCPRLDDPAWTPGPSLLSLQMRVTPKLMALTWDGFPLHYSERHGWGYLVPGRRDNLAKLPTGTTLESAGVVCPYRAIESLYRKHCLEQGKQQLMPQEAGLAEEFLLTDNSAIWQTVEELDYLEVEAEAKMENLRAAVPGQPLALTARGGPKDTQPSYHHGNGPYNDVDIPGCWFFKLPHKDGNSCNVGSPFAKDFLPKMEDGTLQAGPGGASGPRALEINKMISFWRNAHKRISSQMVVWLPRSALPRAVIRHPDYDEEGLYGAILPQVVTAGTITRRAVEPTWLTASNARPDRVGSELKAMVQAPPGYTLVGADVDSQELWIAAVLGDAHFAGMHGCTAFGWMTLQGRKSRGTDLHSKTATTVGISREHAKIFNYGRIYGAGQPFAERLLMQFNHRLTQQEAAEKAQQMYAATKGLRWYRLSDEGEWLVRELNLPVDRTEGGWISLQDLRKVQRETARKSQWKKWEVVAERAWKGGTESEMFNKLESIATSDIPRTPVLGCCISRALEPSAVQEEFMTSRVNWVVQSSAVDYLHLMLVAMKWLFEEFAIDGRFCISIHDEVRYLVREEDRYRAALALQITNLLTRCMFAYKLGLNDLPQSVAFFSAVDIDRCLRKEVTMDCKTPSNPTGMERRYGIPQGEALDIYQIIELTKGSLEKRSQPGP
Procedure: (§1) Triphosphates of nucleosides were tested against pure polymerases using tritiated dCTP incorporation.

DNA Pol β = DNA Pol β (Homo sapiens, UniProt P06746); assay: Inhibition of pure DNA polymerase β by nucleoside triphosphates; assay type: biochemical; details: tritiated dCTP incorporation
Procedure: as §1

HepG2 cells = assay: Mitochondrial toxicity testing (mitDNA, rRNA, lactic acid); assay type: cell-based; details: 14 days; for % Change in Lactic Acid: normalized for cytotoxicity
Procedure: HepG2 cells were incubated for 14 days with the active agent. and mitDNA and rRNA levels were determined by quantitative real-time PCR. The results are tabulated in […]

[2] = test system: acutely HIV-1 infected human PBM cells; assay: Median effect / combination index study with Racivir; assay type: cell-based; details: Human immunodeficiency virus 1, PBMC, 120 h
wild type HIV-RT = target: T2, wild type HIV-RT (Human immunodeficiency virus type 1 group M subtype B, UniProt P04585); assay: Ki / Km for wild type HIV-RT; assay type: biochemical, HIV-1
T2 construct: The Ki value for β-D-D4FC-TP for wild type HIV-RT

[3] = human, in vivo
clinical [4] = details: in vivo
[5] = pbmc
M184V mutant RT = M184V mutant RT (Human immunodeficiency virus type 1 group M subtype B, UniProt P04585, M771V); assay: biochemical; assay type: biochemical, HIV-1
[6] = test system: AZT/3TC-resistant HIV-1 recombinant viruses; assay: microbe, parasite or virus in culture; assay type: cell-based; details: Human immunodeficiency virus 1, read-out: Average IC90 for AZT/3TC-R virus
Procedure: A panel of 22 viruses was constructed in the HXB2 background using the Protease and RT sequences from clinical isolates to determine Virco Profiling against recombinant clinical isolates (see FIGS. 7a and 7b). Viruses contained 2 to 17 mutations in RT frequently associated with nucleoside resistance, including: M184V, M41L, D67N, T215Y. IC50 values were determined using a high through-put reporter virus assay.

Nc1nc(=O)[nH]cc1F [5FC, 5-fluorocytosine]
AUC (clinical [1]; 10 mg): 0.39 ± 0.26 µM·h | AUC(0-τ) (clinical [1]; 10 mg): 136 ± 14 ng·h/mL | AUC(0-∞) (clinical [1]; 10 mg): 149 ng·h/mL | CLr (clinical [1]; 10 mg): 1.39 L/h | CLtot/F (clinical [1]; 10 mg): 67 957 mL/h | T ½ (clinical [1]; 10 mg): 6.4 ± 4.2 h | Tmax (clinical [1]; 10 mg): 1.0 ± 0.3 h | t1/2 λz (clinical [1]; 10 mg): 2.41 h | tmax (clinical [1]; 10 mg): 1.08 h | AUC (clinical [1]; 25 mg): 1.52 ± 0.87 µM·h | AUC(0-τ) (clinical [1]; 25 mg): 234 ng·h/mL | AUC(0-∞) (clinical [1]; 25 mg): 250 ng·h/mL | CLr (clinical [1]; 25 mg): 1.27 L/h | CLtot/F (clinical [1]; 25 mg): 115 262 mL/h | T ½ (clinical [1]; 25 mg): 9.5 ± 5.2 h | Tmax (clinical [1]; 25 mg): 1.8 ± 0.9 h | t1/2 λz (clinical [1]; 25 mg): 4.60 h | tmax (clinical [1]; 25 mg): 1.33 h | AUC (clinical [1]; 100 mg): 1.93 ± 0.68 µM·h | AUC(0-τ) (clinical [1]; 100 mg): 309 ng·h/mL | AUC(0-∞) (clinical [1]; 100 mg): 340 ng·h/mL | CLr (clinical [1]; 100 mg): 10.26 L/h | CLtot/F (clinical [1]; 100 mg): 307 932 mL/h | T ½ (clinical [1]; 100 mg): 18.6 ± 10.1 h | Tmax (clinical [1]; 100 mg): 3.7 ± 0.8 h | t1/2 λz (clinical [1]; 100 mg): 8.50 h | tmax (clinical [1]; 100 mg): 3.67 h | AUC (clinical [1]; 200 mg): 14.43 ± 13.12 µM·h | AUC(0-τ) (clinical [1]; 200 mg): 1,665 ng · h/mL | AUC(0-∞) (clinical [1]; 200 mg): 1,887 ng · h/mL | CLr (clinical [1]; 200 mg): 4.60 L/h | CLtot/F (clinical [1]; 200 mg): 169 692 mL/h | T ½ (clinical [1]; 200 mg): 11.2 ± 7.1 h | Tmax (clinical [1]; 200 mg): 3.3 ± 3.2 h | t1/2 λz (clinical [1]; 200 mg): 10.48 h | tmax (clinical [1]; 200 mg): 3.33 h

C[C@H](Cn1cnc2c(N)ncnc21)OCP(=O)(O)O [TFV]
Viral Load Decline (log) (HIV viral load; 300 mg QD, duration of dosing 28): −1.57 log

Nc1nc(NC2CC2)c2ncn([C@H]3C=C[C@@H](CO)C3)c2n1 [ABC, (1S,4R)-4-[2-amino-6-cyclopropyl-amino)-9H-purin-9-yl]-2-cyclopentene-1-methanol succinate]
Viral Load Decline (log) (HIV viral load; 600 mg BD, duration of dosing 7): −1.00 log

Nc1ccn([C@H]2CC[C@@H](COP(=O)(O)OP(=O)(O)OP(=O)(O)O)O2)c(=O)n1 [ddC-TP]
IC50 (DNA Pol γ): 70 nM | IC50 (DNA Pol β): 250 nM

Nc1nc(=O)n([C@H]2C=C[C@@H](CO)O2)cc1F [L-D4FC]
% Change in mitDNA (HepG2 cells; 1 μM): −15% | % Change in rRNA (HepG2 cells; 1 μM): 0% | % Change in Lactic Acid (HepG2 cells; 1 μM): +25% | % Change in mitDNA (HepG2 cells; 10 μM): −74.2% | % Change in rRNA (HepG2 cells; 10 μM): −75.5% | % Change in Lactic Acid (HepG2 cells; 10 μM): +147% | Viral Load Decline (log) (HIV viral load; 50 mg QD, duration of dosing 21, add-on study in experienced patients, mean of 7 of 18 patients): −1.69 log

Cc1cn([C@H]2C[C@H](N=[N+]=[N-])[C@@H](CO)O2)c(=O)[nH]c1=O [AZT, 3′-deoxy-3′-azido-thymidine]
Viral Load Decline (log) (HIV viral load; 300 mg BD, duration of dosing 14): −0.6 log

Nc1nc(=O)n([C@@H]2CS[C@H](CO)O2)cc1F [FTC, β-L-2′,3′-dideoxy-3′-thia-5-fluorocytidine]
Viral Load Decline (log) (HIV viral load; 200 mg QD, duration of dosing 12): −1.7 log

Cc1cn([C@H]2C=C[C@@H](CO)O2)c(=O)[nH]c1=O [D4T, 2′,3′-didehydro-2′,3′-dideoxythymidine]
EC50 [2]: 50 nM | EC90 [2]: 350 nM | Ki (wild type HIV-RT): 50 to 300 nM | Intracellular [Nuc-PPP] in patients [3]: 0.05 µM | Cmax (clinical [4]): 2.7 µM | half-life (clinical [4]): 1.7 h | Intracellular half life [5]: 3.5 h | Ki (M184V mutant RT): 3000 nM | IC90 [6]: 6800 nM

Nc1ccn([C@H]2CO[C@@H](CO)S2)c(=O)n1 [SPD 754]
Viral Load Decline (log) (HIV viral load; 1200 mg QD, duration of dosing 10): −1.62 log

Nc1ccn([C@@H]2CS[C@H](CO)O2)c(=O)n1 [3TC, β-L-2′,3′-dideoxy-3′-thiacytidine]
Intracellular [Nuc-PPP] in patients [3]: 6 to 10 µM | Cmax (clinical [4]): 6.6 µM | % Change in mitDNA (HepG2 cells; 1 μM): 0% | % Change in rRNA (HepG2 cells; 1 μM): −0.3% | % Change in Lactic Acid (HepG2 cells; 1 μM): +23% | % Change in mitDNA (HepG2 cells; 10 μM): −9% | % Change in rRNA (HepG2 cells; 10 μM): −0% | % Change in Lactic Acid (HepG2 cells; 10 μM): +5% | IC90 [6]: > 93000 nM

Nc1ccn([C@H]2C[C@H](O)[C@@H](COP(=O)(O)OP(=O)(O)OP(=O)(O)O)O2)c(=O)n1 [dC-TP]
Km (wild type HIV-RT; Km for dC-TP (substrate), read-out: Km WT): 7 µM | Km (M184V mutant RT; Km for dC-TP (substrate)): 9 µM

Cc1cn([C@H]2C[C@H](F)[C@@H](CO)O2)c(=O)[nH]c1=O [FLT]
Viral Load Decline (log) (HIV viral load; 7.5 mg QD, duration of dosing 28, add-on study in experienced patients): −1.88 log

Nc1nc(N)c2ncn([C@H]3CO[C@@H](CO)O3)c2n1 [DAPD, β-D-dioxolanyl-2,6-diaminopurine]
Viral Load Decline (log) (HIV viral load; 300 mg BD, duration of dosing 14, add-on study in experienced patients): −1.5 log

Nc1ccn([C@H]2CC[C@@H](CO)O2)c(=O)n1 [ddC, 2′,3′-dideoxycytidine]
% Change in mitDNA (HepG2 cells; 1 μM): −99.7% | % Change in rRNA (HepG2 cells; 1 μM): −65.4% | % Change in Lactic Acid (HepG2 cells; 1 μM): +390% | % Change in mitDNA (HepG2 cells; 10 μM): −99.7% | % Change in rRNA (HepG2 cells; 10 μM): −73.6% | % Change in Lactic Acid (HepG2 cells; 10 μM): +492%
